Read-outs that look alike come from different tables or passages of the source.
What was measured:
CRTH2 = CRTH2 (Homo sapiens (Human), UniProt Q9Y5Y4); assay: CRTH2 receptor binding inhibitory activity ([3H]-PGD2 displacement, membranes of CRTH2-expressing K562 cell)
Summary of the method: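 CRTH2-expressing K562 membranes (20 μg/well) in 50 mM Tris/HCl pH 7.4 with 10 mM MgCl2 were incubated with [3H]-PGD2 for 60 min at room temperature, then filtered.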

Human DP1 receptor = Human DP1 receptor (Homo sapiens (Human), UniProt Q13258); assay: Human DP1 inhibitory activity in DP1-expressing cell (PGD2-induced cAMP); type: cell-based
Human DP1 receptor, sequence (Q13258 whole entry): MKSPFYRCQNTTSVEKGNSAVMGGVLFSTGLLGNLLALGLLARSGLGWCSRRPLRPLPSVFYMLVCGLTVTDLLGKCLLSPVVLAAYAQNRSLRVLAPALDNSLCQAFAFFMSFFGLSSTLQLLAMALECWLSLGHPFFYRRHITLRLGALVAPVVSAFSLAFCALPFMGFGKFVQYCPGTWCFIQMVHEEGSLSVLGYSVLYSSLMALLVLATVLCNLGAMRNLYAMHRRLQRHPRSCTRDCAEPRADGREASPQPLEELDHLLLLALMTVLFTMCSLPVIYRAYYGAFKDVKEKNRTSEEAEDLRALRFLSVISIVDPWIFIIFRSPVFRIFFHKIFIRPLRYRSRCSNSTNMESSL
Protocol: Compounds were categorized as AA (cAMP is less than 100 nM) and A (cAMP is more than 100 nM and less than 5000 nM) as shown in Table 99 and 100.

[1] = CRTH2 receptor binding, [3H]-PGD2 displacement, membrane of CRTH2-expressing K562 cell, categorized AAAA/AAA, read-out: Ki
[2] = category of cAMP IC50, human DP1 receptor expressing Jurkut cell
[3] = [3H]-PGD2 displacement, membrane of CRTH2-expressing K562 cell, read-out: Ki

CRTH2, sequence (Q9Y5Y4 whole entry): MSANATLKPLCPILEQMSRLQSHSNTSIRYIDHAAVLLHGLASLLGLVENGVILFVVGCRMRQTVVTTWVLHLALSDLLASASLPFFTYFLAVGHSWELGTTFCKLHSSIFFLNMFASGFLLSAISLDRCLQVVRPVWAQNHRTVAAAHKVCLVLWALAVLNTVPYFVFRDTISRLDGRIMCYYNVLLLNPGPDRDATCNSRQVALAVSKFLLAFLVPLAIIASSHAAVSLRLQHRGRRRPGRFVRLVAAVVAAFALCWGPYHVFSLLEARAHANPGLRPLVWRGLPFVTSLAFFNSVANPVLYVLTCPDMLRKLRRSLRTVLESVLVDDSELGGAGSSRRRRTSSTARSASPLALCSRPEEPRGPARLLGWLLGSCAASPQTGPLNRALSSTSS

Compound | Ki (CRTH2; [1]) | IC50 (Human DP1 receptor; [2]) | Ki (CRTH2; [3]) | IC50 (Human DP1 receptor; IC50 of PGD2 (60 nM)-induced cAMP increase, human DP1 receptor expressing Jurkut cell) | Ki (CRTH2)
CCOc1ccc(S(=O)(=O)N2C[C@H](n3nc(CC(=O)O)c4ccccc43)C[C@@H]2CF)cc1 [Compound I-209] | 0.1 to 5 µM | < 0.1 µM |  |  | 
C[C@]1(F)CN(S(=O)(=O)c2ccc(F)cc2)C[C@@H]1n1nc(CC(=O)O)c2ccccc21 (racemic) [Compound I-227] | < 0.1 µM | 0.1 to 5 µM |  |  | 
CC(C)Oc1ccc(S(=O)(=O)N2C[C@H](O)[C@@H](n3nc(CC(=O)O)c4ccc(F)cc43)C2)cc1 [Compound I-25] | < 0.1 µM | 0.1 to 5 µM |  |  | 
CC(C)Oc1ccc(S(=O)(=O)N2C[C@H](n3nc(CC(=O)O)c4ccc(F)cc43)C[C@@H]2Cn2ncnn2)cc1 [Compound I-299] | 0.1 to 5 µM | 0.1 to 5 µM |  |  | 
CC(C)Oc1ccc(S(=O)(=O)N2C[C@@H](C)[C@@H](n3nc(/C=C/C(=O)O)c4ccc(F)cc43)C2)cc1 [Compound I-100] | < 0.1 µM | 0.1 to 5 µM |  |  | 
CC(C)Oc1ccc(S(=O)(=O)N2C[C@H](n3nc(CC(=O)O)c4ccc(F)cc43)CC2c2cccnc2)cc1 (stereo partly shown) [Compound I-345] | 0.1 to 5 µM | 0.1 to 5 µM |  |  | 
CC(C)Oc1ccc(S(=O)(=O)N2C[C@H](n3nc(CC(=O)O)c4ccc(F)cc43)C[C@H]2c2ccccn2)cc1 [Compound I-350] | < 0.1 µM | 0.1 to 5 µM |  |  | 
CCOc1ccc(S(=O)(=O)N2C[C@@H](C)[C@@H](n3nc(CC(=O)O)c4ccc(F)cc43)C2)cc1 [Compound I-106] | < 0.1 µM | < 0.1 µM |  |  | 
CCOc1ccc(S(=O)(=O)N2C[C@@H](C)[C@@H](n3nc(CC(=O)O)c4cc5c(cc43)OCO5)C2)cc1 [Compound I-175] | < 0.1 µM | 0.1 to 5 µM |  |  | 
C=C[C@@H]1CN(S(=O)(=O)c2ccc(OC(C)C)cc2)C[C@@H]1n1nc(CC(=O)O)c2ccc(F)cc21 [Compound I-38] | < 0.1 µM | < 0.1 µM |  |  | 
CCOc1ccc(S(=O)(=O)N2C[C@@H](C)[C@@H](n3nc(CC(=O)O)c4ccc(F)cc43)C2)s1 [Compound I-169] | < 0.1 µM | < 0.1 µM |  |  | 
CCOc1ccc(S(=O)(=O)N2C[C@@H](C)[C@@H](n3cc(CC(=O)O)c4ccc(-c5cnn(C)c5)cc43)C2)cc1 [Compound I-328] | 0.1 to 5 µM | 0.1 to 5 µM |  |  | 
CC(C)Oc1ccc(S(=O)(=O)N2C[C@H](n3nc(CC(=O)O)c4ccc(F)cc43)C[C@@H]2COc2ccc(F)cc2)cc1 [Compound I-366] | 0.1 to 5 µM | < 0.1 µM |  |  | 
CC(C)OCCOc1ccc(S(=O)(=O)N2C[C@@H](C)[C@@H](n3nc(CC(=O)O)c4ccccc43)C2)cc1 [Compound I-190] | < 0.1 µM | 0.1 to 5 µM |  |  | 
CC(C)Oc1ccc(S(=O)(=O)N2C[C@@H](CC(F)F)[C@@H](n3nc(CC(=O)O)c4ccc(F)cc43)C2)cc1 [Compound I-44] | < 0.1 µM | 0.1 to 5 µM |  |  | 
CC(C)Oc1ccc(S(=O)(=O)N2C[C@@H](C)[C@@H](n3nc(CC(=O)O)c4ccc(F)cc43)C2)nc1 [Compound I-149] | < 0.1 µM | 0.1 to 5 µM | 0.0048 µM |  | 
CNC(=O)[C@@H]1C[C@@H](n2nc(CC(=O)O)c3ccc(F)cc32)CN1S(=O)(=O)c1ccc(OC(C)C)cc1 [Compound I-4] | 0.1 to 5 µM | 0.1 to 5 µM | 0.32 µM |  | 
CCOc1ccc(S(=O)(=O)N2C[C@H](n3nc(CC(=O)O)c4ccccc43)C[C@@H]2CC2COC2)cc1 [Compound I-352] | 0.1 to 5 µM | 0.1 to 5 µM |  |  | 
CC(C)Oc1ccc(S(=O)(=O)N2C[C@@H](C)[C@@H](n3nc(CC(=O)O)c4ccc(F)cc43)C2)cc1 [Compound I-29] | < 0.1 µM | < 0.1 µM |  |  | 
CCOc1ccc(S(=O)(=O)N2C[C@@H](C)[C@@H](n3nc(CC(=O)O)c4ccc(C5=CCCCC5)cc43)C2)cc1 [Compound I-220] | < 0.1 µM | < 0.1 µM | 0.0081 µM | 0.032 µM | 
C[C@]1(O)CN(S(=O)(=O)c2ccc(F)cc2)C[C@@H]1n1nc(CC(=O)O)c2ccccc21 [Compound I-158] | < 0.1 µM | 0.1 to 5 µM |  |  | 
CCOc1ccc(S(=O)(=O)N2C[C@@H](C)[C@@H](n3nc(CC(=O)O)c4ccccc43)C2)c(CCc2ccccc2)c1 [Compound I-186] | < 0.1 µM | 0.1 to 5 µM |  |  | 
CCOc1ccc(S(=O)(=O)N2C[C@@H](C)[C@@H](n3c(C)c(CC(=O)O)c4ccccc43)C2)cn1 [Compound I-330] | < 0.1 µM | < 0.1 µM |  |  | 
CC(C)Oc1ccc(S(=O)(=O)N2CC[C@H](n3nc(CC(=O)O)c4ccc(F)cc43)C[C@@H]2C)cc1 [Compound I-76] | 0.1 to 5 µM | < 0.1 µM |  |  | 
CC(C)C1CC1S(=O)(=O)N1C[C@@H](C)[C@@H](n2nc(CC(=O)O)c3ccc(F)cc32)C1 (stereo partly shown) [Compound I-239] | < 0.1 µM | 0.1 to 5 µM | 0.0044 µM |  | 
CCOc1ccc(S(=O)(=O)N2C[C@@H](C)[C@@H](n3nc(CC(=O)O)c4ccc(C#N)cc43)C2)cc1 [Compound I-172] | < 0.1 µM | < 0.1 µM |  |  | 

Compound | Ki (CRTH2; [1]) | IC50 (Human DP1 receptor; [2]) | Ki (CRTH2; [3]) | IC50 (Human DP1 receptor; IC50 of PGD2 (60 nM)-induced cAMP increase, human DP1 receptor expressing Jurkut cell) | Ki (CRTH2)
CC(C)Oc1ccc(S(=O)(=O)N2C[C@@H](CO)[C@@H](n3nc(CC(=O)O)c4ccc(F)cc43)C2)cc1 [Compound I-64] | < 0.1 µM | 0.1 to 5 µM |  |  | 
COc1ccc(S(=O)(=O)N2C[C@@H](C)[C@@H](n3nc(CC(=O)O)c4ccccc43)C2)cc1 [Compound I-241] | < 0.1 µM | < 0.1 µM |  |  | 
C=CC[C@@H]1CN(S(=O)(=O)c2ccc(OC(C)C)cc2)C[C@@H]1n1nc(CC(=O)O)c2ccc(F)cc21 [Compound I-32] | < 0.1 µM | < 0.1 µM |  |  | 
CCOc1ccc(S(=O)(=O)N2C[C@H](n3nc(CC(=O)O)c4ccc(F)cc43)C(C)(C)C2)cc1 [Compound I-331] | < 0.1 µM | < 0.1 µM |  |  | 
COc1ccc(S(=O)(=O)N2C[C@@H](C)[C@@H](n3nc(CC(=O)O)c4ccccc43)C2)nc1 [Compound I-246] | < 0.1 µM | 0.1 to 5 µM |  |  | 
COc1ccc(S(=O)(=O)N2C[C@@H](C)[C@@H](n3nc(CC(=O)O)c4ccc(F)cc43)C2)c(F)c1 [Compound I-233] | < 0.1 µM | < 0.1 µM |  |  | 
CCOc1ccc(S(=O)(=O)N2C[C@H](n3nc(CC(=O)O)c4ccccc43)C[C@H]2C#N)cc1 [Compound I-320] | < 0.1 µM | < 0.1 µM |  |  | 
CC(C)Oc1ccc(S(=O)(=O)N2C[C@H](n3nc(CC(=O)O)c4ccc(F)cc43)CC23CC3)cc1 [Compound I-54] | < 0.1 µM | 0.1 to 5 µM |  |  | 
COc1ccc(S(=O)(=O)N2C[C@@H](C)[C@@H](n3nc(CC(=O)O)c4ccccc43)C2)c(F)c1 [Compound I-244] | < 0.1 µM | < 0.1 µM |  |  | 
[2H]c1ccc2c(c1)c(CC(=O)O)nn2[C@H]1CN(S(=O)(=O)c2ccc(OCC)cc2)C[C@H]1C [Compound I-264] | < 0.1 µM | < 0.1 µM |  |  | 
CCOc1ccc(S(=O)(=O)N2C[C@@H](C)[C@@H](n3nc(CC(=O)O)c4c(C)cccc43)C2)cn1 [Compound I-206] | 0.1 to 5 µM | < 0.1 µM |  |  | 
C[C@@H]1CN(S(=O)(=O)c2ccc(F)cc2)C[C@@H]1n1nc(CC(=O)O)c2ccc(F)cc21 [Compound I-48] | < 0.1 µM | 0.1 to 5 µM |  |  | 
O=C(O)Cc1nn([C@@H]2C[C@H]3CC[C@@H](C2)N3S(=O)(=O)c2ccc(F)cc2)c2cc(F)ccc12 [Compound I-80] |  | 0.1 to 5 µM |  |  | 0.1 to 5 µM
CCOc1ccc(S(=O)(=O)N2C[C@@H](n3nc(CC(=O)O)c4ccccc43)[C@](C)(F)C2)cc1 [Compound I-310] | 0.1 to 5 µM | 0.1 to 5 µM |  |  | 
CCOc1ccc(S(=O)(=O)N2C[C@@H](C)[C@@H](n3nc(C(C)(OC)C(=O)O)c4ccccc43)C2)cc1 (stereo partly shown) [Compound I-285] | 0.1 to 5 µM | 0.1 to 5 µM |  |  | 
CC(C)Oc1ccc(S(=O)(=O)N2CC=C(n3nc(CC(=O)O)c4ccc(F)cc43)C2)cc1 [Compound I-28] | 0.1 to 5 µM | < 0.1 µM |  |  | 
CC(C)Oc1ccc(S(=O)(=O)N2C[C@@H](C)[C@@H](n3nc(CC(=O)O)c4cc(C#N)ccc43)C2)cc1 [Compound I-262] | 0.1 to 5 µM | < 0.1 µM |  |  | 
CC(C)Oc1ccc(S(=O)(=O)N2C[C@@H](C)[C@@H](n3nc(CC(=O)O)c4cc(C#N)c(F)cc43)C2)cc1 [Compound I-167] | 0.1 to 5 µM | < 0.1 µM |  |  | 
CCOc1ccc(S(=O)(=O)N2C[C@@H](C)[C@@H](n3nc(CC(=O)O)c4ccc(C)cc43)C2)cn1 [Compound I-111] | < 0.1 µM | < 0.1 µM |  |  | 
CC(C)Oc1ccc(S(=O)(=O)N2C[C@@H](CF)[C@@H](n3nc(CC(=O)O)c4ccc(F)cc43)C2)cc1 [Compound I-42] | < 0.1 µM | 0.1 to 5 µM |  |  | 
CCOc1ccc(S(=O)(=O)N2C[C@H](n3nc(CC(=O)O)c4ccc(F)cc43)[C@H](C)[C@H]2C#N)cc1 [Compound I-217] | < 0.1 µM | < 0.1 µM |  |  | 
CC(C)Oc1ccc(S(=O)(=O)N2C[C@H](n3nc(CC(=O)O)c4ccc(F)cc43)C[C@@H]2COc2ccccc2O)cc1 [Compound I-292] | 0.1 to 5 µM | < 0.1 µM |  |  | 
COc1ccc(S(=O)(=O)N2C[C@@H](C)[C@@H](n3nc(CC(=O)O)c4ccc(C)cc43)C2)c(F)c1 [Compound I-236] | < 0.1 µM | < 0.1 µM |  |  | 
CCOc1ccc(S(=O)(=O)N2C[C@@H](C)[C@@H](n3nc(CC(=O)O)c4ccc(C)cc43)C2)cc1 [Compound I-109] | < 0.1 µM | < 0.1 µM |  |  | 
CCOc1ccc(S(=O)(=O)N2C[C@@H](C)[C@@H](n3nc(CC(=O)O)c4ccc(OC)cc43)C2)cc1 [Compound I-225] | < 0.1 µM | < 0.1 µM |  |  | 
CCOc1ccc(S(=O)(=O)N2C[C@@H](C)[C@@H](n3nc(CC(=O)O)c4ccc(C5CCCCC5)cc43)C2)cc1 [Compound I-223] | < 0.1 µM | 0.1 to 5 µM |  |  | 

From patent US9725442B2, “Heterocyclic derivative having PGD2 receptor antagonist activity” (Shionogi & Co., Ltd., priority 2011, dated 2017)
